Tests used:
[1] = biological target: CYP3A4.15 (Homo sapiens, UniProt P08684, R162Q); assay: Ziprasidone catalysis by recombinant CYP3A4.15
Protocol: (§1) Following the incubation, 400 μL of ACN and 20 μL of IS were added to the mixture. The sample was then vortexed and centrifuged, and the resulting supernatant was collected for analysis via LC-MS/MS.

[2] = biological target: CYP3A4.14 (Homo sapiens, UniProt P08684, L15P); assay: Ziprasidone catalysis by recombinant CYP3A4.14
Protocol: as §1

[3] = biological target: CYP3A4.34 (Homo sapiens, UniProt P08684, I427V); assay: Ziprasidone catalysis by recombinant CYP3A4.34; conditions: CYP3A4.34, CL = Vmax/Km
Chain of CYP3A4.34 (P08684 whole entry I427V): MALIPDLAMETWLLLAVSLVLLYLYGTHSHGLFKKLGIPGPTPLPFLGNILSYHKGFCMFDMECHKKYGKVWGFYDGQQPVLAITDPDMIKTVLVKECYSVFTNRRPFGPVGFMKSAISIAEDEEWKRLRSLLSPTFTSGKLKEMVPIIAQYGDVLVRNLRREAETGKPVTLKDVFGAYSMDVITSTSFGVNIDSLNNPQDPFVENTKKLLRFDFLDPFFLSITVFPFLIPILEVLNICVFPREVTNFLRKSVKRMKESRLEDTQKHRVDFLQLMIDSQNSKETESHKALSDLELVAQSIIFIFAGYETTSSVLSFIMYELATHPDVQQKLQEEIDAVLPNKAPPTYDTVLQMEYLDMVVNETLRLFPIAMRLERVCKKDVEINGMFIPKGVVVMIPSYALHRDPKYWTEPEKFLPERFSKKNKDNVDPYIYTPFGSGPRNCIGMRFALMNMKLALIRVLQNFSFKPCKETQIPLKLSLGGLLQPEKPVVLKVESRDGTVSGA
Protocol: as §1

[4] = parameters: method as in Beedham et al., 2003; conditions: humans; ref Beedham et al., 2003; cited from earlier work
[5] = biological target: CYP3A4.31 (Homo sapiens, UniProt P08684, H324Q); assay: Ziprasidone catalysis by recombinant CYP3A4.31
Chain of CYP3A4.31 (P08684 whole entry H324Q): as the sequence (P08684 whole entry I427V) above, with H324Q, V427I counted along it
Protocol: as §1

[6] = biological target: CYP3A4.9 (Homo sapiens, UniProt P08684, V170I); assay: Ziprasidone catalysis by recombinant CYP3A4.9
Chain of CYP3A4.9 (P08684 whole entry V170I): as the sequence (P08684 whole entry I427V) above, with V170I, V427I counted along it
Protocol: as §1

[7] = biological target: CYP3A4.10 (Homo sapiens, UniProt P08684, D174H); assay: Ziprasidone catalysis by recombinant CYP3A4.10
Chain of CYP3A4.10 (P08684 whole entry D174H): as the sequence (P08684 whole entry I427V) above, with D174H, V427I counted along it
Protocol: as §1

[8] = biological target: CYP3A4.19 (Homo sapiens, UniProt P08684, P467S); assay: Ziprasidone catalysis by recombinant CYP3A4.19
Chain of CYP3A4.19 (P08684 whole entry P467S): as the sequence (P08684 whole entry I427V) above, with V427I, P467S counted along it
Protocol: as §1

[9] = biological target: CYP3A4.8 (Homo sapiens, UniProt P08684, R130Q); assay: Ziprasidone catalysis by recombinant CYP3A4.8
Chain of CYP3A4.8 (P08684 whole entry R130Q): as the sequence (P08684 whole entry I427V) above, with R130Q, V427I counted along it
Protocol: as §1

[10] = biological target: CYP3A4.18 (Homo sapiens, UniProt P08684, L293P); assay: Ziprasidone catalysis by recombinant CYP3A4.18
Chain of CYP3A4.18 (P08684 whole entry L293P): as the sequence (P08684 whole entry I427V) above, with L293P, V427I counted along it
Protocol: as §1

[11] = biological target: CYP3A4.28 (Homo sapiens, UniProt P08684, L22V); assay: Ziprasidone catalysis by recombinant CYP3A4.28
Chain of CYP3A4.28 (P08684 whole entry L22V): as the sequence (P08684 whole entry I427V) above, with L22V, V427I counted along it
Protocol: as §1

[12] = biological target: CYP3A4.16 (Homo sapiens, UniProt P08684, T185S); assay: Ziprasidone catalysis by recombinant CYP3A4.16; conditions: CYP3A4.16, CL = Vmax/Km
Chain of CYP3A4.16 (P08684 whole entry T185S): as the sequence (P08684 whole entry I427V) above, with T185S, V427I counted along it
Protocol: as §1

[13] = biological target: CYP3A4.1 (Homo sapiens, UniProt P08684); assay: Ziprasidone catalysis by recombinant CYP3A4.1
Chain of CYP3A4.1 (P08684 whole entry): as the sequence (P08684 whole entry I427V) above, with V427I counted along it
Protocol: as §1

[14] = biological target: CYP3A4.13 (Homo sapiens, UniProt P08684, P416L); assay: Ziprasidone catalysis by recombinant CYP3A4.13
Chain of CYP3A4.13 (P08684 whole entry P416L): as the sequence (P08684 whole entry I427V) above, with P416L, V427I counted along it
Protocol: as §1

[15] = biological target: CYP3A4.32 (Homo sapiens, UniProt P08684, I335T); assay: Ziprasidone catalysis by recombinant CYP3A4.32
Chain of CYP3A4.32 (P08684 whole entry I335T): as the sequence (P08684 whole entry I427V) above, with I335T, V427I counted along it
Protocol: as §1

[16] = biological target: CYP3A4.3 (Homo sapiens, UniProt P08684, M445T); assay: Ziprasidone catalysis by recombinant CYP3A4.3
Chain of CYP3A4.3 (P08684 whole entry M445T): as the sequence (P08684 whole entry I427V) above, with V427I, M445T counted along it
Protocol: as §1

[17] = biological target: CYP3A4.5 (Homo sapiens, UniProt P08684, P218R); assay: Ziprasidone catalysis by recombinant CYP3A4.5
Chain of CYP3A4.5 (P08684 whole entry P218R): as the sequence (P08684 whole entry I427V) above, with P218R, V427I counted along it
Protocol: as §1

[18] = biological target: CYP3A4.12 (Homo sapiens, UniProt P08684, L373F); assay: Ziprasidone catalysis by recombinant CYP3A4.12
Chain of CYP3A4.12 (P08684 whole entry L373F): as the sequence (P08684 whole entry I427V) above, with L373F, V427I counted along it
Protocol: as §1

[19] = Rat pharmacokinetic study of ziprasidone and ziprasidone sulfoxide with resveratrol or quercetin; conditions: male, Sprague-Dawley, plasma, po, 15 mg/kg, rats, n=6; for CL/F: CLz/F; for Vd/F: Vz/F; for half-life: t1/2z
Protocol: To minimize potential confounding effects of hormonal fluctuations, this study exclusively utilized male Sprague-Dawley (SD) rats (340 ± 15 g) obtained from Vital River Laboratories (Beijing, China).
Following a 7-day acclimatization period under controlled conditions (temperature: 20°C–25°C; humidity: 50%–65%; 12h/12 h light/dark cycle), 18 rats were fasted for 12 h (water ad libitum) and randomly divided into three treatment groups (n = 6 per group).
Serial blood samples (50 μL) were collected at predetermined time points (0, 1, 2, 4, 6, 8, 10, 12, 24, and 48 h) and processed with 150 μL acetonitrile and 20 μL midazolam IS (500 ng/mL). After vortex-mixing (2 min) and centrifugation (10,075 × g, 10 min), the supernatant was subjected to LC-MS/MS analysis. […] Calibration curves were established over 1–1,000 ng/mL for both analytes, with samples processed identically to study specimens.
Essential pharmacokinetic parameters were determined using a non-compartmental model through Drug and Statistics (DAS) software version 3.0. For the polymorphism experiment results, one-way ANOVA was performed in GraphPad Prism 8.0, while pharmacokinetic data were assessed using an unpaired t-test, with a p-value below 0.05 deemed statistically significant.

[20] = biological target: CYP3A4.24 (Homo sapiens, UniProt P08684, Q200H); assay: Ziprasidone catalysis by recombinant CYP3A4.24; conditions: CYP3A4.24, CL = Vmax/Km
Chain of CYP3A4.24 (P08684 whole entry Q200H): as the sequence (P08684 whole entry I427V) above, with Q200H, V427I counted along it
Protocol: as §1

[21] = biological target: CYP3A4.23 (Homo sapiens, UniProt P08684, R162W); assay: Ziprasidone catalysis by recombinant CYP3A4.23
Chain of CYP3A4.23 (P08684 whole entry R162W): as the sequence (P08684 whole entry I427V) above, with R162W, V427I counted along it
Protocol: as §1

[22] = biological target: CYP3A4.33 (Homo sapiens, UniProt P08684, A370S); assay: Ziprasidone catalysis by recombinant CYP3A4.33; conditions: CYP3A4.33, CL = Vmax/Km
Chain of CYP3A4.33 (P08684 whole entry A370S): as the sequence (P08684 whole entry I427V) above, with A370S, V427I counted along it
Protocol: as §1

[23] = ziprasidone 15 mg/kg oral + quercetin 50 mg/kg i.g.
[24] = ziprasidone 15 mg/kg oral + resveratrol 50 mg/kg i.g.
[25] = ziprasidone 15 mg/kg oral, control (corn oil)

Chain of CYP3A4.14 (P08684 whole entry L15P): as the sequence (P08684 whole entry I427V) above, with L15P, V427I counted along it
Chain of CYP3A4.15 (P08684 whole entry R162Q): as the sequence (P08684 whole entry I427V) above, with R162Q, V427I counted along it

## O=C1Cc2cc(CCN3CCN(c4nsc5ccccc45)CC3)c(Cl)cc2N1 [ziprasidone, Ziprasidone]
[1]; CYP3A4.15, CL = Vmax/Km
  CL: 9.53 ± 1.38 µL/min/pmol
[1]; CYP3A4.15, relative clearance
  % of CYP3A4.1: 157.07 ± 22.67 %
[2]; CYP3A4.14, CL = Vmax/Km
  CL: 6.64 ± 0.48 µL/min/pmol
[2]; CYP3A4.14, relative clearance
  % of CYP3A4.1: 109.41 ± 7.88%
[3]
  CL: 4.65 ± 0.66 µL/min/pmol
[4]
  administered dose excreted unchanged: less than 5%
[5]; CYP3A4.31, CL = Vmax/Km
  CL: 4.08 ± 0.83 µL/min/pmol
[5]; CYP3A4.31, relative clearance
  % of CYP3A4.1: 55.46 ± 11.30 %
[6]; CYP3A4.9, CL = Vmax/Km
  CL: 7.92 ± 0.36 µL/min/pmol
[6]; CYP3A4.9, relative clearance
  % of CYP3A4.1: 130.65 ± 6.00%
[7]; CYP3A4.10, CL = Vmax/Km
  CL: 4.52 ± 0.35 µL/min/pmol
[7]; CYP3A4.10, relative clearance
  % of CYP3A4.1: 74.60 ± 5.81%
[8]; CYP3A4.19, CL = Vmax/Km
  CL: 6.19 ± 0.53 µL/min/pmol
[8]; CYP3A4.19, relative clearance
  % of CYP3A4.1: 84.26 ± 7.20%
[9]; CYP3A4.8, CL = Vmax/Km
  CL: 5.71 ± 0.42 µL/min/pmol
[9]; CYP3A4.8, relative clearance
  % of CYP3A4.1: 94.14 ± 6.86%
[10]; CYP3A4.18, CL = Vmax/Km
  CL: 6.56 ± 1.12 µL/min/pmol
[10]; CYP3A4.18, relative clearance
  % of CYP3A4.1: 89.27 ± 15.28%
[11]; CYP3A4.28, CL = Vmax/Km
  CL: 5.69 ± 1.01 µL/min/pmol
[11]; CYP3A4.28, relative clearance
  % of CYP3A4.1: 77.40 ± 13.81%
[12]
  CL: 6.79 ± 1.26 µL/min/pmol
[13]; CYP3A4.1, CL = Vmax/Km
  CL: 6.07 ± 1.19 µL/min/pmol
[13]; CYP3A4.1, relative clearance
  % of CYP3A4.1: 100.00 ± 19.66%
[14]; CYP3A4.13, CL = Vmax/Km
  CL: 5.60 ± 0.90 µL/min/pmol
[14]; CYP3A4.13, relative clearance
  % of CYP3A4.1: 92.30 ± 14.84%
[15]; CYP3A4.32, CL = Vmax/Km
  CL: 7.66 ± 1.55 µL/min/pmol
[15]; CYP3A4.32, relative clearance
  % of CYP3A4.1: 104.25 ± 21.13%
[16]; CYP3A4.3, CL = Vmax/Km
  CL: 9.30 ± 0.85 µL/min/pmol
[16]; CYP3A4.3, relative clearance
  % of CYP3A4.1: 153.26 ± 14.08 %
[17]; CYP3A4.5, CL = Vmax/Km
  CL: 4.65 ± 0.52 µL/min/pmol
[17]; CYP3A4.5, relative clearance
  % of CYP3A4.1: 76.73 ± 8.59%
[18]; CYP3A4.12, CL = Vmax/Km
  CL: 5.72 ± 0.87 µL/min/pmol
[18]; CYP3A4.12, relative clearance
  % of CYP3A4.1: 94.29 ± 14.33%
[19]; [23]
  AUC(0-t): 9390 ng·h/mL
  AUC(0-inf): 9390 ng·h/mL
  CL/F: 94.2 mL/min/kg
  Cmax: 1620 ng/mL
  Tmax: 4 ± 1.79 h
  Vd/F: 33.3 ± 22.1 L/kg
  half-life: 3.79 ± 2.11 h
[19]; [24]
  AUC(0-t): 6760 ng·h/mL
  AUC(0-inf): 6760 ng·h/mL
  CL/F: 150 mL/min/kg
  Cmax: 1160 ng/mL
  Tmax: 4.33 ± 2.66 h
  Vd/F: 56.1 ± 42.7 L/kg
  half-life: 4.06 ± 1.52 h
[19]; [25]
  AUC(0-t): 6610 ng·h/mL
  AUC(0-inf): 6980 ng·h/mL
  CL/F: 43.8 mL/min/kg
  Cmax: 963 ± 367 ng/mL
  Tmax: 4 ± 2.19 h
  Vd/F: 24.3 ± 19.1 L/kg
  half-life: 8.64 ± 10.8 h
[20]
  CL: 3.46 ± 0.67 µL/min/pmol
[21]; CYP3A4.23, CL = Vmax/Km
  CL: 6.11 ± 0.83 µL/min/pmol
[21]; CYP3A4.23, relative clearance
  % of CYP3A4.1: 83.13 ± 11.26%
[22]
  CL: 14.74 ± 0.74 µL/min/pmol

Reference: paper PMC12069442 (Frontiers in Pharmacology, 2025)
